Data taken from paper PMC11078746 (Nature, 2024).

Experiments:
RKO = assay: CFA 10-14 day clonogenic assay; format: cell-based; settings: Homo sapiens
RL952 = assay: 4 day proliferation assay (CellTiter-Glo); settings: Homo sapiens, RL95-2, 96 h, read-out: 4 day assay GI50
HEC1B = assay: 4 day proliferation assay (CellTiter-Glo); settings: Homo sapiens, HEC-1B, 96 h, read-out: 4 day assay GI50
SW48 = assay: cells; settings: Homo sapiens, SW48, read-out: CFA 10-14 day assay GI50
OVK18 = assay: 4 day proliferation assay (CellTiter-Glo); settings: Homo sapiens, OVK18, 96 h, read-out: 4 day assay GI50
IM95 = assay: 4 day proliferation assay (CellTiter-Glo); settings: Homo sapiens, IM95, 96 h, read-out: 4 day assay GI50
[1] = CL in vivo, intravenous bolus; settings: whole blood
Experimental: PK parameters were determined by non-compartmental analysis. Intravenous bolus studies in mouse, rat and dog were performed at 1, 1 and 0.1 mg per kg respectively (Extended Data Table 1).

DLD-1 (HCT15) = assay: 4 day proliferation assay (CellTiter-Glo); settings: Homo sapiens, 96 h, read-out: 4 day assay GI50
MDCK LE permeability = format: in vitro ADME, canine; settings: dog
[2] = test system: microsatellite-stable (MSS) cells; assay: Clonogenic assay, 10-to-14-day; settings: 10-to-14-day clonogenic assay
2313287 = assay: 4 day proliferation assay (CellTiter-Glo); settings: Homo sapiens, 96 h, read-out: 4 day assay GI50
HEC251 [3] = assay: 4 day proliferation assay (CellTiter-Glo); settings: Homo sapiens, HEC-251, 96 h, read-out: 4 day assay GI50
CL34 = assay: CFA 10-14 day clonogenic assay; format: cell-based; settings: Homo sapiens
IGROV1 = assay: CFA 10-14 day clonogenic assay; format: cell-based; settings: Homo sapiens, IGROV-1
LS513 = assay: CFA 10-14 day clonogenic assay; format: cell-based; settings: Homo sapiens, LS-513
SNU1 = assay: 4 day proliferation assay (CellTiter-Glo); settings: Homo sapiens, SNU1, 96 h, read-out: 4 day assay GI50
TOV21G = assay: 4 day proliferation assay (CellTiter-Glo); settings: Homo sapiens, 96 h, read-out: 4 day assay GI50
TGBC11TKB [4] = assay: 4 day proliferation assay (CellTiter-Glo); settings: Homo sapiens, 96 h, read-out: 4 day assay GI50
KM12 = assay: 4 day proliferation assay (CellTiter-Glo); settings: Homo sapiens, KM12, 96 h, read-out: 4 day assay GI50
Ishikawa = assay: 4 day proliferation assay (CellTiter-Glo); settings: Homo sapiens, 96 h, read-out: 4 day assay GI50
TGBC11TKB [5] = assay: CFA 10-14 day clonogenic assay; format: cell-based; settings: Homo sapiens
HEC1A [6] = assay: CFA 10-14 day clonogenic assay; format: cell-based; settings: Homo sapiens, HEC-1-A
HEC1A [7] = assay: 4 day proliferation assay (CellTiter-Glo); settings: Homo sapiens, HEC-1-A, 96 h, read-out: 4 day assay GI50
JHUEM2 = assay: 4 day proliferation assay (CellTiter-Glo); settings: Homo sapiens, 96 h, read-out: 4 day assay GI50
JHUEM1 = assay: CFA 10-14 day clonogenic assay; format: cell-based; settings: Homo sapiens
HEC251 [8] = assay: CFA 10-14 day clonogenic assay; format: cell-based; settings: Homo sapiens, HEC-251

## CCc1c(N2CCN(C(=O)c3ncnc(C)c3O)CC2)c(=O)n2nc(C3=CCOCC3)nc2n1CC(=O)Nc1ccc(C(F)(F)F)cc1Cl [HRO761]
RKO
  GI50: 243 nM
RL952
  GI50: 144 nM
HEC1B
  GI50: ≥ 10 µM
SW48
  GI50: 31 nM
OVK18
  GI50: ≥ 10 µM
IM95
  GI50: 2010 nM
[1]; 0.1 mg/kg, dog, intravenous bolus 0.1 mg per kg
  clearance: 4.3 mL/min/kg
[1]; 1 mg/kg, mouse, intravenous bolus 1 mg per kg
  clearance: 29 mL/min/kg
[1]; 1 mg/kg, rat, intravenous bolus 1 mg per kg
  clearance: 5.3 mL/min/kg
DLD-1 (HCT15)
  GI50: ≥ 10 µM
MDCK LE permeability; A-B
  Papp A→B: 30 ×10⁻⁶ cm/s
MDCK LE permeability; Fig. 1b
  Papp: 31 ×10⁻⁶ cm/s
[2]
  effect on viability: no effect
2313287
  GI50: ≥ 10 µM
HEC251 [3]
  GI50: ≥ 10 µM
CL34
  GI50: 39 nM
IGROV1
  GI50: 473 nM
LS513
  GI50: ≥ 10 µM
SNU1
  GI50: ≥ 10 µM
TOV21G
  GI50: ≥ 10 µM
TGBC11TKB [4]
  GI50: 178 nM
KM12
  GI50: 1380 nM
Ishikawa
  GI50: 228 nM
TGBC11TKB [5]
  GI50: 44 nM
Ames
  Ames: Negative
HEC1A [6]
  GI50: ≥ 10 µM
HEC1A [7]
  GI50: ≥ 10 µM
JHUEM2
  GI50: ≥ 10 µM
JHUEM1
  GI50: 35 nM
HEC251 [8]
  GI50: ≥ 10 µM
